Measurements published in patent publication US20240228555A9, “ANTIMICROBIAL PEPTIDOMIMETICS” (Basilea Pharmaceutica International AG, Allschwil, priority 2020, published 2024).
Where a SMILES comes first, the peptide text is derived from it. Bridges are numbered along the chain shown (N, C = ends). [ ]: non-standard residue; d: D form. Orn(iPr) = CC(C)NCCC[C@H](N)C(=O)O; Dab(iPr) = CC(C)NCC[C@H](N)C(=O)O; Hyp = O=C(O)[C@@H]1C[C@@H](O)CN1; Pen = CC(C)(S)[C@H](N)C(=O)O; dDab = NCC[C@@H](N)C(=O)O; Dab = NCC[C@H](N)C(=O)O

Key:
[1] = tested on: human red blood cells (hRBC); type: cell-based; settings: red cells of human, 1 h, 0.2 g/L
How it was run: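 PBS-washed human erythrocytes (20% v/v) were incubated with compounds at 200 μg/mL for 1 h at 37° C with shaking. Supernatant OD540 was read after 8-fold dilution; hemolysis % = OD540 peptide / OD540 of the 100% lysis control (2.5% Triton X-100 in H2O) ×100, with PBS as 0%.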

[2] = tested on: Klebsiella pneumoniae SSI3010; settings: SSI3010
How it was run: (§1)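 Two-fold serial dilutions of peptide, in water with polysorbate 80 (0.002% final), met bacteria adjusted to 0.5 McFarland then diluted to about 5×10^5 CFU/mL. Medium was cation-adjusted Mueller-Hinton II broth; peptide stocks were 1 mg/mL in sterile water.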

[3] = tested on: Escherichia coli ATCC 25922; settings: ATCC 25922
How it was run: as §1

[4] = tested on: Escherichia coli MCR-1 Af 45; settings: Mueller-Hinton broth II, no visible growth after 18-20 hours at 35° C.
How it was run: as §1

## CC[C@H](C)[C@H](NC(=O)[C@@H]1C[C@@H](O)CN1C(=O)[C@@H](N)C(C)C)C(=O)N[C@H](C(=O)N[C@@H](Cc1ccc(O)cc1)C(=O)N[C@@H]1C(=O)N[C@@H](CC(N)=O)C(=O)N[C@@H](CCCNC(=N)N)C(=O)N[C@@H](CCN)C(=O)N[C@@H]([C@@H](C)O)C(=O)N[C@H](CCN)C(=O)N[C@@H](CCCCN)C(=O)N[C@H](C(=O)N[C@@H](CCN)C(=O)N[C@@H](CCCNC(=N)N)C(=O)N[C@@H](Cc2ccc(O)cc2)C(=O)O)CSSC1(C)C)C(C)(C)O [Example 126, Val-Hyp-Ile-Val(3OH)-Tyr-Pen-Asn-Arg-Dab-Thr-^DDab-Lys-Cys-Dab-Arg-Tyr] (HELM PEPTIDE1{V.[Hyp].I.[CC(C)(O)[C@H](N[*:1])C(=O)[*:2]].Y.[Pen].N.R.[Dab].T.[NCC[C@@H](N[*:1])C(=O)[*:2]].K.C.[Dab].R.Y}$PEPTIDE1,PEPTIDE1,6:R3-13:R3$$$V2.0)
[1]
  Hemolysis at 0.2 g/L: <1%
[2]
  Klebsiella pneumoniae SSI3010 MIC: 0.125 µg/mL
[3]
  Escherichia coli ATCC 25922 MIC: 0.0625 µg/mL
[4]
  Escherichia coli MCR-1 Af 45 MIC: 0.0625 µg/mL

## CC[C@H](C)[C@H](NC(=O)[C@@H]1CC(F)(F)CN1C(=O)[C@@H](N)C(C)C)C(=O)N[C@H](C(=O)N[C@@H](Cc1ccc(O)cc1)C(=O)N[C@@H]1C(=O)N[C@@H](CC(N)=O)C(=O)N[C@@H](CCCNC(=N)N)C(=O)N[C@@H](CCN)C(=O)N[C@@H]([C@@H](C)O)C(=O)N[C@H](CCN)C(=O)N[C@@H](CCCCN)C(=O)N[C@H](C(=O)N[C@@H](CCN)C(=O)N[C@@H](CCCNC(=N)N)C(=O)N[C@@H](Cc2ccc(O)cc2)C(=O)O)CSSC1(C)C)[C@@H](C)O [Example 127, Val-Pro(4,4F2)-Ile-Thr-Tyr-Pen-Asn-Arg-Dab-Thr-^DDab-Lys-Cys-Dab-Arg-Tyr] (HELM PEPTIDE1{V.[O=C([C@@H]1CC(F)(F)CN1[*:1])[*:2]].I.T.Y.[Pen].N.R.[Dab].T.[NCC[C@@H](N[*:1])C(=O)[*:2]].K.C.[Dab].R.Y}$PEPTIDE1,PEPTIDE1,6:R3-13:R3$$$V2.0)
[1]
  Hemolysis at 0.2 g/L: <1%
[2]
  Klebsiella pneumoniae SSI3010 MIC: 0.5 µg/mL
[3]
  Escherichia coli ATCC 25922 MIC: 0.25 µg/mL
[4]
  Escherichia coli MCR-1 Af 45 MIC: 0.125 µg/mL

## CC[C@H](C)[C@H](NC(=O)[C@@H]1C=CCN1C(=O)[C@@H](N)C(C)C)C(=O)N[C@H](C(=O)N[C@@H](Cc1ccc(O)cc1)C(=O)N[C@@H]1C(=O)N[C@@H](CC(N)=O)C(=O)N[C@@H](CCCNC(=N)N)C(=O)N[C@@H](CCN)C(=O)N[C@@H]([C@@H](C)O)C(=O)N[C@H](CCN)C(=O)N[C@@H](CCCCN)C(=O)N[C@H](C(=O)N[C@@H](CCN)C(=O)N[C@@H](CCCNC(=N)N)C(=O)N[C@@H](Cc2ccc(O)cc2)C(=O)O)CSSC1(C)C)[C@@H](C)O [Example 128, Val-Pro(3,4dehydro)-Ile-Thr-Tyr-Pen-Asn-Arg-Dab-Thr-^DDab-Lys-Cys-Dab-Arg-Tyr] (HELM PEPTIDE1{V.[O=C([C@@H]1C=CCN1[*:1])[*:2]].I.T.Y.[Pen].N.R.[Dab].T.[NCC[C@@H](N[*:1])C(=O)[*:2]].K.C.[Dab].R.Y}$PEPTIDE1,PEPTIDE1,6:R3-13:R3$$$V2.0)
[1]
  Hemolysis at 0.2 g/L: <1%
[2]
  Klebsiella pneumoniae SSI3010 MIC: 0.25 µg/mL
[3]
  Escherichia coli ATCC 25922 MIC: 0.125 µg/mL
[4]
  Escherichia coli MCR-1 Af 45 MIC: 0.125 µg/mL

## CC[C@H](C)[C@H](NC(=O)[C@@H]1C[C@@H](Oc2ccccc2)CN1C(=O)[C@@H](N)C(C)C)C(=O)N[C@H](C(=O)N[C@@H](Cc1ccc(O)cc1)C(=O)N[C@@H]1C(=O)N[C@@H](CC(N)=O)C(=O)N[C@@H](CCCNC(=N)N)C(=O)N[C@@H](CCN)C(=O)N[C@@H]([C@@H](C)O)C(=O)N[C@H](CCN)C(=O)N[C@@H](CCCCN)C(=O)N[C@H](C(=O)N[C@@H](CCN)C(=O)N[C@@H](CCCNC(=N)N)C(=O)N[C@@H](Cc2ccc(O)cc2)C(=O)O)CSSC1(C)C)[C@@H](C)O [Example 129, Val-Pro(4,4F2)-Ile-Thr-Tyr-Pen-Asn-Arg-Dab-Thr-^DDab-Lys-Cys-Dab-Arg-Tyr] (HELM PEPTIDE1{V.[O=C([C@@H]1C[C@@H](Oc2ccccc2)CN1[*:1])[*:2]].I.T.Y.[Pen].N.R.[Dab].T.[NCC[C@@H](N[*:1])C(=O)[*:2]].K.C.[Dab].R.Y}$PEPTIDE1,PEPTIDE1,6:R3-13:R3$$$V2.0)
[1]
  Hemolysis at 0.2 g/L: <1%
[2]
  Klebsiella pneumoniae SSI3010 MIC: 0.5 µg/mL
[3]
  Escherichia coli ATCC 25922 MIC: 0.125 µg/mL
[4]
  Escherichia coli MCR-1 Af 45 MIC: 0.0625 µg/mL

## CC[C@H](C)[C@H](NC(=O)[C@@H]1C[C@@H](OC)CN1C(=O)[C@@H](N)C(C)C)C(=O)N[C@H](C(=O)N[C@@H](Cc1ccc(O)cc1)C(=O)N[C@@H]1C(=O)N[C@@H](CC(N)=O)C(=O)N[C@@H](CCCNC(=N)N)C(=O)N[C@@H](CCN)C(=O)N[C@@H]([C@@H](C)O)C(=O)N[C@H](CCN)C(=O)N[C@@H](CCCCN)C(=O)N[C@H](C(=O)N[C@@H](CCN)C(=O)N[C@@H](CCCNC(=N)N)C(=O)N[C@@H](Cc2ccc(O)cc2)C(=O)O)CSSC1(C)C)[C@@H](C)O [Example 130, Val-Pro((4R)OPh)-Ile-Thr-Tyr-Pen-Asn-Arg-Dab-Thr-^DDab-Lys-Cys-Dab-Arg-Tyr] (H-V[Hyp](Me)ITY[Pen]NR[Dab]T[dDab]KC[Dab]RY-OH; disulfide 6-13)
[1]
  Hemolysis at 0.2 g/L: <1%
[2]
  Klebsiella pneumoniae SSI3010 MIC: 0.25 µg/mL
[3]
  Escherichia coli ATCC 25922 MIC: 0.125 µg/mL
[4]
  Escherichia coli MCR-1 Af 45 MIC: 0.125 µg/mL

## CC[C@H](C)[C@H](NC(=O)[C@@H]1C[C@@H](F)CN1C(=O)[C@@H](N)C(C)C)C(=O)N[C@H](C(=O)N[C@@H](Cc1ccc(O)cc1)C(=O)N[C@@H]1C(=O)N[C@@H](CC(N)=O)C(=O)N[C@@H](CCCNC(=N)N)C(=O)N[C@@H](CCN)C(=O)N[C@@H]([C@@H](C)O)C(=O)N[C@H](CCN)C(=O)N[C@@H](CCCCN)C(=O)N[C@H](C(=O)N[C@@H](CCN)C(=O)N[C@@H](CCCNC(=N)N)C(=O)N[C@@H](Cc2ccc(O)cc2)C(=O)O)CSSC1(C)C)[C@@H](C)O [Example 131, Val-Pro((4R)F)-Ile-Thr-Tyr-Pen-Asn-Arg-Dab-Thr-^DDab-Lys-Cys-Dab-Arg-Tyr] (HELM PEPTIDE1{V.[O=C([C@@H]1C[C@@H](F)CN1[*:1])[*:2]].I.T.Y.[Pen].N.R.[Dab].T.[NCC[C@@H](N[*:1])C(=O)[*:2]].K.C.[Dab].R.Y}$PEPTIDE1,PEPTIDE1,6:R3-13:R3$$$V2.0)
[1]
  Hemolysis at 0.2 g/L: <1%
[2]
  Klebsiella pneumoniae SSI3010 MIC: 0.5 µg/mL
[3]
  Escherichia coli ATCC 25922 MIC: 0.25 µg/mL
[4]
  Escherichia coli MCR-1 Af 45 MIC: 0.125 µg/mL

## CC[C@H](C)[C@H](NC(=O)[C@@H]1CCCCN1C(=O)[C@@H](N)C(C)C)C(=O)N[C@H](C(=O)N[C@@H](Cc1ccc(O)cc1)C(=O)N[C@@H]1C(=O)N[C@@H](CC(N)=O)C(=O)N[C@@H](CCCNC(=N)N)C(=O)N[C@@H](CCN)C(=O)N[C@@H]([C@@H](C)O)C(=O)N[C@H](CCN)C(=O)N[C@@H](CCCCN)C(=O)N[C@H](C(=O)N[C@@H](CCN)C(=O)N[C@@H](CCCNC(=N)N)C(=O)N[C@@H](Cc2ccc(O)cc2)C(=O)O)CSSC1(C)C)[C@@H](C)O [Example 132, Val-Pic-Ile-Thr-Tyr-Pen-Asn-Arg-Dab-Thr-^DDab-Lys-Cys-Dab-Arg-Tyr] (HELM PEPTIDE1{V.[O=C([C@@H]1CCCCN1[*:1])[*:2]].I.T.Y.[Pen].N.R.[Dab].T.[NCC[C@@H](N[*:1])C(=O)[*:2]].K.C.[Dab].R.Y}$PEPTIDE1,PEPTIDE1,6:R3-13:R3$$$V2.0)
[1]
  Hemolysis at 0.2 g/L: <1%
[2]
  Klebsiella pneumoniae SSI3010 MIC: 0.25 µg/mL
[3]
  Escherichia coli ATCC 25922 MIC: 0.125 µg/mL
[4]
  Escherichia coli MCR-1 Af 45 MIC: 0.125 µg/mL

## CC[C@H](C)[C@H](NC(=O)[C@@H]1C[C@@H](O)CN1C(=O)[C@@H](N)C(C)C)C(=O)N[C@H](C(=O)N[C@@H](Cc1ccc(O)cc1)C(=O)N[C@@H]1C(=O)N[C@@H](CC(N)=O)C(=O)N[C@@H](CCCNC(=N)N)C(=O)N[C@@H](CCNC(C)C)C(=O)N[C@@H]([C@@H](C)O)C(=O)N[C@H](CCN)C(=O)N[C@@H](CCCCN)C(=O)N[C@H](C(=O)N[C@@H](CCN)C(=O)N[C@@H](CCCNC(C)C)C(=O)N[C@@H](Cc2ccc(O)cc2)C(=O)O)CSSC1(C)C)[C@@H](C)O [Example 134, Hyp-Ile-Thr-Tyr-Pen-Asn-Arg-Dab(iPr)-Thr-^DDab-Lys-Cys-Dab-Orn(iPr)-Tyr] (H-V[Hyp]ITY[Pen]NR[Dab(iPr)]T[dDab]KC[Dab][Orn(iPr)]Y-OH; disulfide 6-13)
[1]
  Hemolysis at 0.2 g/L: 1%
[2]
  Klebsiella pneumoniae SSI3010 MIC: 0.5 µg/mL
[3]
  Escherichia coli ATCC 25922 MIC: 0.125 µg/mL
[4]
  Escherichia coli MCR-1 Af 45 MIC: 0.25 µg/mL

## CC[C@H](C)[C@H](NC(=O)[C@@H]1C[C@@H](O)CN1C(=O)[C@@H](N)C(C)C)C(=O)N[C@H](C(=O)N[C@@H](Cc1ccc(O)cc1)C(=O)N[C@@H]1C(=O)N[C@@H](CC(N)=O)C(=O)N[C@@H](CCCNC(=N)N)C(=O)N[C@@H](CCNC(C)C)C(=O)N[C@@H]([C@@H](C)O)C(=O)N[C@H](CCN)C(=O)N[C@@H](CCCCN)C(=O)N[C@H](C(=O)N[C@@H](CCNC(C)C)C(=O)N[C@@H](CCCNC(=N)N)C(=O)N[C@@H](Cc2ccc(O)cc2)C(=O)O)CSSC1(C)C)[C@@H](C)O [Example 135, Hyp-Ile-Thr-Tyr-Pen-Asn-Arg-Dab(iPr)-Thr-^DDab-Lys-Cys-Dab(iPr)-Arg-Tyr] (H-V[Hyp]ITY[Pen]NR[Dab(iPr)]T[dDab]KC[Dab(iPr)]RY-OH; disulfide 6-13)
[1]
  Hemolysis at 0.2 g/L: <1%
[2]
  Klebsiella pneumoniae SSI3010 MIC: 0.5 µg/mL
[3]
  Escherichia coli ATCC 25922 MIC: 0.25 µg/mL
[4]
  Escherichia coli MCR-1 Af 45 MIC: 0.25 µg/mL
